Series [1] concerns the target T1, beta amyloid peptide Aβ(1-40) (Homo sapiens, UniProt P05067).
T1 construct: 0.5 mg/mL AP (140) peptide in 20% HFIP+0.1 μL/assay radioiodinated ^125I Aβ(1-40)
Briefly: BAPA (Beta-Amyloid Peptide Aggregation), pH 6.0. To be noted: Aβ(1-40) 33 μM, pH 6.0, 2 to 4 hours at room temperature, filtration. It counts as biochemical. The method, then: BAPA (Beta-Amyloid Peptide Aggregation)
This assay is used to provide a measure of inhibition by a compound against the aggregation behavior of the beta amyloid peptide.
The purpose of this assay is to provide a higher volume method of assaying the amount of beta amyloid aggregation using an endpoint assay based on filtration. In this assay, hexafluoroisopropanol (HFIP) is used to break down the initial amyloid peptide to a monomer state and use a concentration of 33 μM which is high enough so that aggregation will occur at pH 6.0 in several hours.
β-Amyloid Peptide Aggregation, pH 6.0 (BAPA)
In a 96-well plate (Costar 3794), we add […] 50 mM Phosphate Buffer, pH 6.0, 10 μL 0.5 mg/mL AP (140) peptide in 20% HFIP+0.1 μL/assay radioiodinated ^125I Aβ(1-40) [^125I Aβ(1-40)], and 1 μL of the compound to be tested starting at 50 mM with a concentration of DMSO <1%. Then, we incubate for 2 to 4 hours at room temperature. We stop the reaction with […] of 50 mM phosphate buffer, pH 6.0, and filter it through a 0.2 μm 96-well filter plate (Millipore MAGU N22). We wash the filter plate with 100 μL of the same phosphate buffer. Aggregation was detected on a Microbeta counter after impregnating the filters with Meltilex (1450-441) and is corrected for background.

In series [2] the target is T2, Aβ(1-42) (Homo sapiens, UniProt P05067).
T2 construct: Required Aβ(1-42)(California Peptide) was dried from its hexafluoroisopropanol (HFIP) stock solution; purchased California Peptide
T2 sequence (P05067 672-713 limits assumed): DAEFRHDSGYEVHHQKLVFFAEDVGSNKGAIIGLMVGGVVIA
Briefly: BATYM Assay (Aβ(1-42) aggregation, Thioflavin T fluorescence). It counts as biochemical. The conditions noted are these: Aβ 1-42 final concentration 100 μM, PBS pH 7.4, 37° C., 1 day, ThT fluorescence. As for the experimental part: Required Aβ(1-42)(California Peptide) was dried from its hexafluoroisopropanol (HFIP) stock solution. The Aβ(1-42) was dissolved in dimethylsulfoxide (DMSO) and then mixed with phosphate buffered saline, (PBS) (pH 7.4). The mixed Aβ(1-42) solution was filtered with a 0.2 μm Omnipore membrane syringe filter (Millipore, Bedford, Mass.). The compound to be tested in DMSO (50 times concentrate) was put into each well (0.5 μL/well) of a 96-well plate. The Aβ(1-42) solution was added into each well (24.5 μL/well). The plate was centrifuged at 1,000 g for 5 minutes and incubated at 37° C. for 1 day (Aβ 1-42; final concentration 100 μM).
After incubation Thioflavin T (ThT) (30 μM) solution in glycine-NaOH buffer (pH 8.5, 50 mM) was added into each well (250 μL/well), fluorescence was measured (ex. 440/20 nm; em 485/20 nm) using a fluorescence plate reader. The inhibitory activity was calculated as the reduction of fluorescence with the following formula:
inhibition (%)={(F(Aβ)−F(Aβ+compound)}/{F(Aβ)−F(solvent+compound)}×100
The IC50s were calculated by a curve fitting program using the following equation. The data were obtained from two different experiments in triplicate.
x=concentration of tested compound (M),

For series [3], the target named is T3, Aβ(1-40) (Homo sapiens, UniProt P05067).
T3 construct: Soluble Aβ(1-40) peptide (Bachem, Torrance, Calif.); purchased Bachem, Torrance, Calif
T3 sequence (P05067 672-711 limits assumed): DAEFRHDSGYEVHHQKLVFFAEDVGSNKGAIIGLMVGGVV
Briefly: BASSR (Beta-Amyloid Self-Seeding Radioassay), inhibitors of self-seeded amyloid fibril growth. The class given is biochemical. The conditions noted are these: 30 μM soluble Aβ(1-40) + 125I-labeled Aβ(1-40), pH 7.5, 37° C., 3 to 5 hours, filtration. The method, then: BASSR (Beta-Amyloid Self-Seeding Radioassay)
(§1) An assay for inhibitors of self-seeded amyloid fibril growth
Assay Buffer—50 mM sodium phosphate, pH 7.5, 100 mM NaCl, 0.02% NaN3, 1 M urea (filter and store at 4° C.)
Soluble Aβ(1-40) peptide (Bachem, Torrance, Calif.)—2.2 mg/mL in deionized H2O (stored in aliquots at −20° C., keep on ice when thawed) will self-seed after 1 week storage. Typically, the solution should be stored until no lag phase is seen in the assay.
^125I-labeled Aβ(1-40)—150K-350K cpm/μL in 100% acetonitrile—0.1% trifluoroacetic acid (TFA)—1% β-mercaptoethanol (aliquots stored at −20° C.). ^125I-labeled Aβ(1-40) can be made in accordance with the procedure set forth by H. Levine, III in Neurobiol. Aging, 16:755 (1995), which is hereby incorporated by reference, or this reagent may be purchased from Amersham, Arlington Heights, Ill.
Final assay conditions: 30 μM soluble Aβ(1-40) in deionized water in assay buffer+20-50K cpm ^125I-labeled Aβ(1-40) per assay. Compound to be tested is dissolved in dimethylsulfoxide (DMSO), typically 5-50 mM stock, such that the final concentration of DMSO is <1% v/v in the assay.
Assay: Reaction mixture for 50 assays (on ice) is comprised of 0.1-0.2 μL of […] ^125I-labeled Aβ(1-40)+1 μL of soluble Aβ(1-40)+13.5 μL assay buffer per assay. The following are the amounts of the components of the reaction mixture sufficient for 50 assay wells.
1) Prepare reaction mixture above by mixing components and storing on ice.
2) Pipet 14.5 μL of reaction mixture into each of 50 wells on a polypropylene U-bottom 96-well microtiter plate on ice (Costar 3794).
3) Add 1.7 μL of diluted compound to be tested to each well in a column of eight, including solvent control. Serial 3-fold dilutions from 1 mM (100 μM final) in assay buffer−urea=7 dilutions+zero. Each 96-well plate can therefore accommodate 11 samples+1 Congo Red control (0.039-5 μM final in 2-fold steps).
4) Seal the plate with aluminum film (Beckman 538619) and incubate for 10 minutes on ice.
5) Raise the temperature to 37° C. and incubate for 3 to 5 hours (depending on the lot of the peptide).
6) Remove the aluminum film and add 200 μL/well of ice cold assay buffer with urea, collecting the radiolabeled fibrils by vacuum filtration through 0.2 μm pore size GVWP filters in 96-well plates (Millipore MAGV N22, Bedford, Mass.). Determine the radioactivity of the filters using standard methods well-known to those skilled in the art.

In series [4] the target is T3, Aβ(1-40). Put plainly: BASST (Beta-Amyloid Self-Seeding, ThioflavinT), inhibitors of self-seeded amyloid fibril growth. It counts as biochemical. To be noted: 30 μM soluble Aβ(1-40), pH 7.5, 37° C., 3 to 5 hours, thioflavin T fluorescence. As for the experimental part:
BASST (Beta-Amyloid Self-Seeding, ThioflavinT)
as §1
Assay Buffer—50 mM sodium phosphate, pH 7.5, 100 mM NaCl, 0.02% NaN3, 1 M urea (filter and store at 4° C.).
Soluble Aβ(1-40)—2.2 mg/mL in deionized H2O (store in aliquots at −20° C., keep on ice when thawed) will self-seed after 1 week storage. Typically, the solution should be stored until no lag phase is seen in the assay.
Final assay conditions: 30 μM soluble Aβ(1-40) in deionized water in assay buffer. Compound to be tested is dissolved in DMSO, typically 5-50 mM stock, such that the final concentration of DMSO is <1% v/v in the assay.
Assay: Reaction mixture for 50 assays (on ice) comprised of 1 μL of soluble Aβ(1-40)+13.5 μL assay buffer per assay. The following are the amounts of the components of the reaction mixture that result in each of the 50 assay wells.
1) Prepare the reaction mix above by mixing the components and storing on ice.
2) Pipet […] of reaction mixture into each of 50 wells of a polystyrene U-bottom 96-well microtiter plate (Corning 25881-96) on ice.
3) Add […] of diluted compound to be tested to each well in a column of eight, including solvent control. Serial 3-fold dilutions from 1 mM (100 μM final) in assay buffer−urea=7 dilutions+zero. Each 96-well plate can therefore accommodate 11 samples+1 Congo Red control (0.039-5 μM final in 2-fold steps).
4) Seal the plate with aluminum film and incubate for 10 minutes on ice.
5) Raise the temperature to 37° C. and incubate for 3 to 5 hours (depends on the lot of the peptide).
6) Remove the aluminum film and add 250 μL/well of 5 μM thioflavin T (ThT) [T-3516, Sigma-Aldrich] in 50 mM glycine-NaOH, pH 8.5. Read fluorescence on a plate reader (ex=440 nm/20 nm; em=485 nm/20 nm) within 5 minutes.

Several values for one entry are separate records, joined by “and”; a condition that tells them apart may be missing. Identical values can stand only once. Counter-ions that a name gives are not always drawn.

The melting point is the temperature of the solid-liquid transition. In general, IC50 refers to the concentration that gives 50% inhibition.

T1 sequence (P05067 672-711 limits assumed): as above

Compound `CCCCN(CCCC)c1ccc(/C=C2\SC(=S)N(CC(=O)NS(C)(=O)=O)C2=O)cc1` [Example 21, (Z) N-{2-[5-(4-Dibutylamino-benzylidene)-4-oxo-2-thioxo-thiazolidin-3-yl]-acetyl}-methanesulfonamide] displayed a melting point of 219 to 222 °C. In series [1], this compound returned an IC50 of more than 100 µM. In addition, the IC50 in series [2] was 2.91 µM. For the same compound, the IC50 in series [3] is more than 100 µM.
Take `CCCC1CCN(c2ccc(/C=C3\SC(=S)N(Cc4nnn[nH]4)C3=O)cc2)CC1` [Example 35]: the IC50 in series [1] was more than 60 µM; in series [2], 3.31 µM; in series [4] it was 0.4 µM; in series [3] it was 15 µM.
`CCCCN(CCCC)c1ccc(/C=C2\SC(=S)N(CC(=O)NS(=O)(=O)c3ccc(F)cc3)C2=O)cc1` [Example 25, (Z) N-{2-[5-(4-Dibutylamino-benzylidene)-4-oxo-2-thioxo-thiazolidin-3-yl]-acetyl}-4-fluoro-benzenesulfonamide] registered a melting point of 125 °C. In series [2], the IC50 was 2.38 µM. For the same compound, in series [4], the half-inhibitory concentration (IC50) is 0.6 µM and 0.5 µM. Moreover, in series [3], the IC50 was 6 µM.
For the compound `CCCCCCN(C)c1ccc(/C=C2\SC(=S)N(CS(=O)(=O)O)C2=O)cc1` [Example 15, (Z) {5-[4-(n-Hexylmethylamine)-benzylidene]-4-oxo-2-thioxo-thiazolidin-3-yl}-methanesulfonic acid], the IC50 in series [1] is 8 µM; in series [2] it was 3.39 µM; in series [4], more than 100 µM; in series [3] it was more than 100 µM.
In the case of `O=C1/C(=C/c2ccc(N3CCC4CCCCC4C3)cc2)SC(=S)N1Cc1cc(=O)c(O)co1` (stereo not shown) [Example 32, (Z) 3-(5-Hydroxy-4-oxo-4H-pyran-2-ylmethyl)-5-[4-(octahydro-isoquinolin-2-yl)benzylidene]-2-thioxo-thiazolidin-4-one], the IC50 in series [1] is 46 µM; in series [2] it was 2.55 µM; in series [4], 1 µM; in series [3], more than 100 µM.
The compound “(Z) 2-[5-(4-Hexyl-methyl-amino-benzylidene)-4-oxo-2-thioxo-thiazolidin-3-yl]-ethanesulfonic acid 4-fluoro-benzoylamide [Example 40]” gave an IC50 in series [2] of 2.84 µM.
As to `CCCCCCN(C)c1ccc(/C=C2\SC(=S)N(CCS(=O)(=O)O)C2=O)cc1` (as salt: sodium) [Example 1, (Z) 2-{5[4-(Hexyl-methyl-amino)benzylidene] 4-oxo-2-thioxo-thiazolidin-3-yl}-ethanesulfonic acid], the melting point is more than 250 °C.
On to `CCCCCCN(C)c1ccc(/C=C2\SC(=S)N(CCNC(C)=O)C2=O)cc1` [Example 14], for which the IC50 in series [1] is 30 µM; in series [2] it was more than 100 µM; in series [4] it was 0.22 µM; in series [3] it was more than 100 µM.
In turn, `O=C(CN1C(=O)/C(=C/c2ccc(N3CC[C@@H]4CCCC[C@H]4C3)cc2)SC1=S)NS(=O)(=O)c1ccccc1` [Example 24, (Z) N-(2-{5-[(4aS,8aR)-4(Octahydro-isoquinolin-2-yl)benzylidene]-4-oxo-2-thioxo-thiazolidin-3-yl}-acetyl)-benzenesulfonamide] had a melting point of 222 °C. In addition, in series [2], the IC50 is 3.84 µM. The IC50 in series [4] was 1 µM and 0.8 µM. The IC50 in series [3] is 6.5 µM and 10 µM and 6 µM.
With `CCCCN(CCCC)c1ccc(/C=C2\SC(=S)N(CCS(=O)(=O)NC(=O)c3ccc(F)cc3)C2=O)cc1` [Example 26, (Z) 2-[5-(4-Dibutylamino-benzytidene)-4-oxo-2-thioxo-thiazolidin-3-yl]-ethanesulfonic acid 4-fluoro-benzoylamide], the melting point is 191 to 192 °C. The compound also yielded an IC50 in series [2] of 2.14 µM. The IC50 in series [3] was 6.1 µM and 10 µM.
Consider `CCCCN(CCCC)c1ccc(/C=C2\SC(=S)N(Cc3nnn[nH]3)C2=O)cc1` [Example 20, (Z) 5-(4-Dibutylamino-benzylidene)-3(H-tetrazol-5-ylmethyl)-2-thioxo-thiazolidin-4-one], for which the figures for the IC50 in series [1], in series [2] and in series [4] were more than 100 µM, 2.04 µM and 2 µM, respectively.
For `CCCCCCN(C)c1ccc(/C=C2\SC(=S)N(CCS(=O)(=O)O)C2=O)cc1` [Example 1, (Z) 2-{5[4-(Hexyl-methyl-amino)benzylidene] 4-oxo-2-thioxo-thiazolidin-3-yl}-ethanesulfonic acid], the IC50 is 23 µM in series [1], 1.72 µM in series [2], 1 µM in series [4] and more than 100 µM in series [3].

Source of the values: patent US20040197268A1, “Method of imaging amyloid deposits using substituted rhodanine derivatives” (priority 1999, published 2004).
